Laboratory results from patent publication US20260217712A1, “SOLID STATE FORMS OF MNK INHIBITORS” (4E Therapeutics, Inc., priority 2023, published 2026).
Values joined by “and” are separate entries in the source; they are usually repeats but may differ in a detail not shown here. Equal entries are not always repeated. Structures can show the parent of a compound that is named as a salt. One block for each compound: values may come before it.

What was measured:
Type in all cases: physicochemical
[1] = Static storage at 40° C./75% RH, XRPD and HPLC post storage; conditions: for stability to storage at 40° C./75% RH (in words): 40° C./75% RH (elevated temperature and humidity); for HPLC purity post storage at 40° C./75% RH / XRPD post storage at 40° C./75% RH: 7 days
Experimental: Purity analysis was performed on an Agilent HP1100/Infinity II 1260 series system equipped with a diode array detector and using OpenLAB software. The full method details are provided below:
Poorly Crystalline Structure (I) (from Lot A, Free Form Pattern 1, 30 mg) was dissolved in 50 volumes of THF:Water 9:1 at 60° C. in 13 vials, stirring at 500 RPM (small amount of debris present). The solutions were then treated with 1.1 molar equivalents (90/180 μL) of selected counter-ions (Table 7). The resulting solutions were then cooled down to 5° C. at 0.1° C./min and were held at this temperature for 2 days. The suspensions were filtered and dried under suction for 20 min. The gummed sample was left with the cap off to promote crystallization. All solids obtained were initially analyzed by XRPD and stored in glass HPLC vials for subsequent analysis.
Any solids obtained were analyzed by XRPD, ^1H NMR, HPLC, TGA, DSC, XRPD post storage at 40° C./75% RH after 7 days & IC if necessary. Additional microscopy techniques (PLM & HSM) were used to complement the above analysis where appropriate.

[2] = as above; conditions: 7 days
[3] = Competitive slurries of Pattern 3 and Pattern 11, XRPD; conditions: for XRPD after 7 days / XRPD after 17 days: competitive slurry, solvent and temperature per sample; for XRPD after 7 days: 20 vol
Experimental: A solid mixture of Structure (I) Pattern 3 (from Lot B, 300 mg) and Pattern 11 (Sample 35-1, 300 mg) was mixed for 3 hours using a turbula mixer.
The solid mixture (30 mg) was suspended in solvent (dried with molecular sieves, 600 μL, 20 vol) and either stirred in the fridge, shaken at RT or 55° C. After 7 days, an aliquot of each suspension was analyzed by XRPD. Samples that were still a mixture of forms were placed back into fridge/shakers for a further 10 days and re-analyzed (results shown in Table 36).
Competitive slurry experiments at 55° C., along with one at 5° C., were repeated using a saturated solution as the solvent mixture to minimize dissolution that may have occurred at temperatures other than room temperature.
A saturated solution of THF/Water (9:1) (5 mL) with Structure (I) (from Lot B) was equilibrated at 55° C. overnight in a shaker. The solution was filtered using 0.45 μm nylon filter before use.
A solid mixture of Pattern 3 and Pattern 11 (30 mg) was suspended in the saturated solution (600 μL, 20 vol) and either stirred in the fridge (5° C.) or shaken at 55° C. After 1 day, aliquots of the suspensions were analyzed by XRPD. Both samples were placed back into fridge/shaker. After a total of 11 days, the samples were removed from fridge/shaker. Sample 38-2 was filtered before XRPD, Sample 38-1 was pipetted onto the XRPD holder and allowed to dry before analysis (solid passed through filter).

[4] = High temperature solubility assessment; set-up: key: T = turbid solution; X = suspension; conditions: for observation at 60° C.: 30 mg in 50 volumes of the sample's solvent; for observation at 70° C. / observation at 80° C. / observation at 85° C.: 50 volumes
Experimental: Due to low solubility observed in the experiments of Example 2, a second solubility assessment of Structure (I) from Lot A was carried out using higher temperatures closer to the boiling points of the selected solvent systems (Table 10). Once at temperature, phosphoric acid or a base was added to either promote formation of a phosphate or Na/K salt.
Structure (I) (from Lot A, Free Form Pattern 1, 30 mg) was weighed into 6 HPLC vials and a stirrer bar added to each one. 50 volumes of different solvents were added to the samples according to Table 10 and the samples heated incrementally on a Polar Bear heating block, stirring at 400 RPM. Observations were noted as the temperature was increased, holding at each temperature for 10 minutes.

stability to storage at 40° C./75% RH (in words) [1]: stable to storage
HPLC purity post storage at 40° C./75% RH ([1]; listed as 9-2): 97.7% purity
XRPD post storage at 40° C./75% RH ([2]; listed as 9-2): No change by XRPD
Compound: Cc1cc(Nc2cc(N)ncn2)c(=O)n2c1C(=O)NC21CCC2(CC2)CC1 [HCl Patterns 1 and 3]

XRPD after 1 day ([3]; slurry in saturated THF/Water (9:1) solution): Patterns 3 and 11 +
Compound: Cc1cc(Nc2cc(N)ncn2)c(=O)n2c1C(=O)NC21CCC2(CC2)CC1 [Pattern 38-1]

XRPD post storage at 40° C./75% RH [1]: converted to Pattern 3
XRPD post storage at 40° C./75% RH ([2]; listed as 27-1): Change in form—Pattern 3
Compound: Cc1cc(Nc2cc(N)ncn2)c(=O)n2c1C(=O)NC21CCC2(CC2)CC1 [Pattern 4]

XRPD after 7 days [3]: Pattern 11
Compound: Cc1cc(Nc2cc(N)ncn2)c(=O)n2c1C(=O)NC21CCC2(CC2)CC1 [Pattern 36-2]

XRPD after 7 days [3]: Patterns 3 and 11
XRPD after 17 days [3]: Patterns 3 and 11
Compound: Cc1cc(Nc2cc(N)ncn2)c(=O)n2c1C(=O)NC21CCC2(CC2)CC1 [Pattern 36-3]

HPLC purity post storage at 40° C./75% RH [1]: 99.4%
XRPD post storage at 40° C./75% RH [1]: SUL P2
Compound: Cc1cc(Nc2cc(N)ncn2)c(=O)n2c1C(=O)NC21CCC2(CC2)CC1 [Pattern 22-8]

HPLC purity post storage at 40° C./75% RH [1]: crystallinity. 97.0% purity observed.
Compound: Cc1cc(Nc2cc(N)ncn2)c(=O)n2c1C(=O)NC21CCC2(CC2)CC1 [PHO Pattern 2]
XRPD post storage at 40° C./75% RH [1]: lost a significant amount of crystallinity

stability to storage at 40° C./75% RH (in words) ([1]; listed as 9-7): data. Form looks stable
XRPD post storage at 40° C./75% RH [1]: consistent with Maleate Pattern 1
HPLC purity post storage at 40° C./75% RH ([1]; listed as 9-7): 98.8% purity. Maleate
XRPD post storage at 40° C./75% RH ([2]; listed as 9-7): pattern retained; very
Compound: Cc1cc(Nc2cc(N)ncn2)c(=O)n2c1C(=O)NC21CCC2(CC2)CC1 [Maleate Pattern 1]

stability to storage at 40° C./75% RH (in words) [1]: remained stable by XRPD & HPLC
stability to storage at 40° C./75% RH (in words) ([1]; listed as 9-8): data. Form looks stable
XRPD post storage at 40° C./75% RH [1]: consistent with PHO Pattern 1
HPLC purity post storage at 40° C./75% RH ([1]; listed as 9-8): 98.5% purity. Phosphate
HPLC purity post storage at 40° C./75% RH ([1]; listed as 22-2): 99.1%
XRPD post storage at 40° C./75% RH ([2]; listed as 9-8): pattern retained,
XRPD post storage at 40° C./75% RH ([2]; listed as 22-2): Unchanged
Compound: Cc1cc(Nc2cc(N)ncn2)c(=O)n2c1C(=O)NC21CCC2(CC2)CC1 [Phosphate Pattern 1]

XRPD post storage at 40° C./75% RH [1]: converted to Free Form Pattern 3
XRPD post storage at 40° C./75% RH ([2]; listed as 28-1): 7 days: Crystallization-Pattern 3 (WD)
Compound: Cc1cc(Nc2cc(N)ncn2)c(=O)n2c1C(=O)NC21CCC2(CC2)CC1 [amorphous material]

XRPD after 7 days [3]: Pattern 11
Compound: Cc1cc(Nc2cc(N)ncn2)c(=O)n2c1C(=O)NC21CCC2(CC2)CC1 [Pattern 36-1]

observation at 60° C. [4]: T
observation at 70° C. [4]: T
Compound: Cc1cc(Nc2cc(N)ncn2)c(=O)n2c1C(=O)NC21CCC2(CC2)CC1 [Pattern 10-7]

observation at 60° C. [4]: X
observation at 70° C. [4]: X
observation at 80° C. [4]: X
observation at 85° C. [4]: X
Compound: Cc1cc(Nc2cc(N)ncn2)c(=O)n2c1C(=O)NC21CCC2(CC2)CC1 [Pattern 10-5]

Compound: Cc1cc(Nc2cc(N)ncn2)c(=O)n2c1C(=O)NC21CCC2(CC2)CC1 [Pattern 5]
XRPD post storage at 40° C./75% RH ([2]; listed as 30-2): transition completed and 7 days: Change in form-Pattern 3

HPLC purity post storage at 40° C./75% RH ([1]; listed as 9-11): 98.8%
XRPD post storage at 40° C./75% RH ([2]; listed as 9-11): Citrate Pattern 1
Compound: Cc1cc(Nc2cc(N)ncn2)c(=O)n2c1C(=O)NC21CCC2(CC2)CC1 [CIT Pattern 1]

observation at 60° C. [4]: T
observation at 70° C. [4]: T
Compound: Cc1cc(Nc2cc(N)ncn2)c(=O)n2c1C(=O)NC21CCC2(CC2)CC1 [Pattern 10-6]

observation at 60° C. [4]: X
observation at 70° C. [4]: X
Compound: Cc1cc(Nc2cc(N)ncn2)c(=O)n2c1C(=O)NC21CCC2(CC2)CC1 [Pattern 10-1]

XRPD post storage at 40° C./75% RH [1]: loss of the additional peaks
HPLC purity post storage at 40° C./75% RH ([1]; listed as 22-4): 99.2%
XRPD post storage at 40° C./75% RH ([2]; listed as 22-4): FUM P2 (additional peaks lost),
Compound: Cc1cc(Nc2cc(N)ncn2)c(=O)n2c1C(=O)NC21CCC2(CC2)CC1 [Fumarate Pattern 2]

XRPD after 7 days [3]: Pattern 11
Compound: Cc1cc(Nc2cc(N)ncn2)c(=O)n2c1C(=O)NC21CCC2(CC2)CC1 [Pattern 36-7]

observation at 60° C. [4]: X
observation at 70° C. [4]: X
observation at 80° C. [4]: X
observation at 85° C. [4]: X
Compound: Cc1cc(Nc2cc(N)ncn2)c(=O)n2c1C(=O)NC21CCC2(CC2)CC1 [Pattern 10-3]

HPLC purity post storage at 40° C./75% RH ([1]; listed as 9-12): 98.8%
Compound: Cc1cc(Nc2cc(N)ncn2)c(=O)n2c1C(=O)NC21CCC2(CC2)CC1 [Pattern 2]

XRPD after 7 days [3]: Pattern 11
Compound: Cc1cc(Nc2cc(N)ncn2)c(=O)n2c1C(=O)NC21CCC2(CC2)CC1 [Pattern 36-5]

observation at 60° C. [4]: T
observation at 70° C. [4]: T
Compound: Cc1cc(Nc2cc(N)ncn2)c(=O)n2c1C(=O)NC21CCC2(CC2)CC1 [Pattern 10-8]

XRPD after 7 days [3]: Patterns 3 and 11
XRPD after 17 days [3]: Patterns 3 and 11
Compound: Cc1cc(Nc2cc(N)ncn2)c(=O)n2c1C(=O)NC21CCC2(CC2)CC1 [Pattern 36-14]

observation at 60° C. [4]: X
observation at 70° C. [4]: X
observation at 80° C. [4]: X
observation at 85° C. [4]: X
Compound: Cc1cc(Nc2cc(N)ncn2)c(=O)n2c1C(=O)NC21CCC2(CC2)CC1 [Pattern 10-4]

XRPD post storage at 40° C./75% RH [1]: large loss in crystallinity
HPLC purity post storage at 40° C./75% RH ([1]; listed as 9-4): 99.3%
Compound: Cc1cc(Nc2cc(N)ncn2)c(=O)n2c1C(=O)NC21CCC2(CC2)CC1 [TOS Pattern 1]

observation at 60° C. [4]: X
observation at 70° C. [4]: X
observation at 80° C. [4]: X
observation at 85° C. [4]: X
Compound: Cc1cc(Nc2cc(N)ncn2)c(=O)n2c1C(=O)NC21CCC2(CC2)CC1 [Pattern 10-2]

stability to storage at 40° C./75% RH (in words) [1]: not stable to storage
HPLC purity post storage at 40° C./75% RH ([1]; listed as 9-6): 98.8%
Compound: Cc1cc(Nc2cc(N)ncn2)c(=O)n2c1C(=O)NC21CCC2(CC2)CC1 [BES Pattern 1]

XRPD after 7 days [3]: Pattern 11
Compound: Cc1cc(Nc2cc(N)ncn2)c(=O)n2c1C(=O)NC21CCC2(CC2)CC1 [Pattern 36-12]

XRPD after 7 days [3]: Patterns 3 and 11
XRPD after 17 days [3]: Pattern 11
Compound: Cc1cc(Nc2cc(N)ncn2)c(=O)n2c1C(=O)NC21CCC2(CC2)CC1 [Pattern 36-15]

XRPD after 7 days [3]: Pattern 11 + extra
Compound: Cc1cc(Nc2cc(N)ncn2)c(=O)n2c1C(=O)NC21CCC2(CC2)CC1 [Pattern 36-11]

XRPD after 7 days [3]: Pattern 11
Compound: Cc1cc(Nc2cc(N)ncn2)c(=O)n2c1C(=O)NC21CCC2(CC2)CC1 [Pattern 36-6]

XRPD after 7 days [3]: Patterns 3 and 11
XRPD after 17 days [3]: Patterns 3 and 11
Compound: Cc1cc(Nc2cc(N)ncn2)c(=O)n2c1C(=O)NC21CCC2(CC2)CC1 [Pattern 36-13]

stability to storage at 40° C./75% RH (in words) [1]: instability to storage
HPLC purity post storage at 40° C./75% RH ([1]; listed as 13-2): frit are not present. 95.7% purity
Compound: Cc1cc(Nc2cc(N)ncn2)c(=O)n2c1C(=O)NC21CCC2(CC2)CC1 [HCl Pattern 4]

XRPD after 7 days [3]: Pattern 11
Compound: Cc1cc(Nc2cc(N)ncn2)c(=O)n2c1C(=O)NC21CCC2(CC2)CC1 [Pattern 36-4]
